Data set [1] concerns cell surface heparan sulfate of Vero E6 cells. The experiment in a line: Heparan sulfate presentation by anti-HS mAb 10E4 staining of Vero E6 cells. Type of data set: cell-based, African green monkey. As to conditions: Vero E6, 18 h.
For data set [2], the system named is heparan sulfate of Hep3B cells. As to the kind of experiment: HS content and disaccharide analysis by LC-MS in Hep3B cells. Type of data set: cell-based, human.
For data set [3], the system named is authentic SARS-CoV-2. Type of data set: cell-based.
The test system of data set [4] is authentic SARS-CoV-2. Type of data set: cell-based. This is another data set of the same source.
Data set [5] relates to recombinant SARS-CoV-2 spike RBD protein binding to Hep3B cells.
The conditions of data set [6]: mice, cited from earlier work.

Each structure is given as a SMILES string. “And” between values parts separate entries of the source, which are not always exact repeats. Equal entries are not always repeated.

In the case of `O=C(CC1NCCCC1O)Cn1cnc2cc(Br)c(Cl)cc2c1=O` (racemic) [halofuginone], the “effect on heparan sulfate presentation (10E4 binding)” value in data set [1] is 10E4 binding increased and did not significantly alter heparan sulfate production and presentation. The “effect on heparan sulfate presentation (10E4 binding)” value in data set [1] (listed as Halofuginone) is reported as “did not decrease cellular HS”. Further, the “disaccharide composition of HS” value in data set [2] was “No difference was seen in the disaccharide composition”. For the same molecule, the “reduction of cell surface HS” value in data set [2] (0.5 μM) is given as about 4 fold. In addition, the “number of SARS-CoV-2 infected cells” value with authentic SARS-CoV-2 [3] (at both 10 nM and 100 nM) is listed as “significantly reduced the number of SARS-CoV-2 infected cells”. Further, the “inhibition of SARS-CoV-2” value with authentic SARS-CoV-2 [3] (different halofuginone doses) is listed as “complete inhibition of SARS-CoV-2”. Further, in the data set with authentic SARS-CoV-2 [4], the “decrease of viral RNA levels” value is 10- to 100 fold; the “intracellular viral RNA” value is on record as “did not change”; the “reduction of SARS-CoV-2 infectivity” value is 3 Log and 4 Log; the “reduction of secreted infectious virions” value is about 1000 fold. The “virus in plaque assays” value in the data set on authentic SARS-CoV-2 [4] (HuH 7.5, doses above 100 nM) is reported as “No virus was detected in plaque assays”. Further, the productive infection result in the data set on authentic SARS-CoV-2 [4] (Huh 7.5, 100 nM) is “prevented productive infection”. Further, the “reduction of SARS-CoV-2 infection (viral titers)” value in the data set on authentic SARS-CoV-2 [4] (Huh 7.5, 100 nM, pretreatment alone) was about 30 fold. The “decrease of SARS-CoV-2 RBD binding compared to excipient control (DMSO)” value in data set [5] (1 μM, 18 h) turned out to be 84%. The “inhibition of spike RBD protein binding with excess proline” value in data set [5] (4 mM proline in the media) was “prevented the ability of halofuginone to inhibit spike RED protein binding”. In addition, the “effect on spike (RBD) protein binding” value in data set [5] (listed as Halofuginone) is given as “reduced spike RBD protein binding”. Further, the “exposure (area under the curve) in the lung compared to plasma” value in data set [6] (single intravenous injection) is on record as “more than 87 fold”. Moreover, the tissue distribution entry in data set [6] was “highest tissue concentrations in the lung and kidney”.

(Values after patent US20230321101A1, “METHODS AND USES OF HALOFUGINONE” (The Regents of the University of California, priority 2020, published 2023).)
